Test results as given in US8318762B2, “Pyrazolospiroketone acetyl-CoA carboxylase inhibitors” (Pfizer Inc., priority 2008, dated 2012).
pIC50: −log10 of the molar value.

Key:
recombinant human ACC2 = target: T1, recombinant human ACC2 (Homo sapiens, UniProt O00763); test: Measurement of human ACC2 inhibition (recombinant hACC2 Transcreener ADP detection FP assay); assay type: biochemical; conditions: recombinant hACC2 transcreener assay; read-out: rhACC2 IC50
T1 construct: a full length Cytomax clone of ACC2 was purchased from Cambridge Bioscience Limited; made in house; host or cells: CHO cells (tetracycline induction, pcDNA5 FRT TO-TOPO); purified on a Softlink Soft Release Avidin column
T1 sequence (O00763 whole entry): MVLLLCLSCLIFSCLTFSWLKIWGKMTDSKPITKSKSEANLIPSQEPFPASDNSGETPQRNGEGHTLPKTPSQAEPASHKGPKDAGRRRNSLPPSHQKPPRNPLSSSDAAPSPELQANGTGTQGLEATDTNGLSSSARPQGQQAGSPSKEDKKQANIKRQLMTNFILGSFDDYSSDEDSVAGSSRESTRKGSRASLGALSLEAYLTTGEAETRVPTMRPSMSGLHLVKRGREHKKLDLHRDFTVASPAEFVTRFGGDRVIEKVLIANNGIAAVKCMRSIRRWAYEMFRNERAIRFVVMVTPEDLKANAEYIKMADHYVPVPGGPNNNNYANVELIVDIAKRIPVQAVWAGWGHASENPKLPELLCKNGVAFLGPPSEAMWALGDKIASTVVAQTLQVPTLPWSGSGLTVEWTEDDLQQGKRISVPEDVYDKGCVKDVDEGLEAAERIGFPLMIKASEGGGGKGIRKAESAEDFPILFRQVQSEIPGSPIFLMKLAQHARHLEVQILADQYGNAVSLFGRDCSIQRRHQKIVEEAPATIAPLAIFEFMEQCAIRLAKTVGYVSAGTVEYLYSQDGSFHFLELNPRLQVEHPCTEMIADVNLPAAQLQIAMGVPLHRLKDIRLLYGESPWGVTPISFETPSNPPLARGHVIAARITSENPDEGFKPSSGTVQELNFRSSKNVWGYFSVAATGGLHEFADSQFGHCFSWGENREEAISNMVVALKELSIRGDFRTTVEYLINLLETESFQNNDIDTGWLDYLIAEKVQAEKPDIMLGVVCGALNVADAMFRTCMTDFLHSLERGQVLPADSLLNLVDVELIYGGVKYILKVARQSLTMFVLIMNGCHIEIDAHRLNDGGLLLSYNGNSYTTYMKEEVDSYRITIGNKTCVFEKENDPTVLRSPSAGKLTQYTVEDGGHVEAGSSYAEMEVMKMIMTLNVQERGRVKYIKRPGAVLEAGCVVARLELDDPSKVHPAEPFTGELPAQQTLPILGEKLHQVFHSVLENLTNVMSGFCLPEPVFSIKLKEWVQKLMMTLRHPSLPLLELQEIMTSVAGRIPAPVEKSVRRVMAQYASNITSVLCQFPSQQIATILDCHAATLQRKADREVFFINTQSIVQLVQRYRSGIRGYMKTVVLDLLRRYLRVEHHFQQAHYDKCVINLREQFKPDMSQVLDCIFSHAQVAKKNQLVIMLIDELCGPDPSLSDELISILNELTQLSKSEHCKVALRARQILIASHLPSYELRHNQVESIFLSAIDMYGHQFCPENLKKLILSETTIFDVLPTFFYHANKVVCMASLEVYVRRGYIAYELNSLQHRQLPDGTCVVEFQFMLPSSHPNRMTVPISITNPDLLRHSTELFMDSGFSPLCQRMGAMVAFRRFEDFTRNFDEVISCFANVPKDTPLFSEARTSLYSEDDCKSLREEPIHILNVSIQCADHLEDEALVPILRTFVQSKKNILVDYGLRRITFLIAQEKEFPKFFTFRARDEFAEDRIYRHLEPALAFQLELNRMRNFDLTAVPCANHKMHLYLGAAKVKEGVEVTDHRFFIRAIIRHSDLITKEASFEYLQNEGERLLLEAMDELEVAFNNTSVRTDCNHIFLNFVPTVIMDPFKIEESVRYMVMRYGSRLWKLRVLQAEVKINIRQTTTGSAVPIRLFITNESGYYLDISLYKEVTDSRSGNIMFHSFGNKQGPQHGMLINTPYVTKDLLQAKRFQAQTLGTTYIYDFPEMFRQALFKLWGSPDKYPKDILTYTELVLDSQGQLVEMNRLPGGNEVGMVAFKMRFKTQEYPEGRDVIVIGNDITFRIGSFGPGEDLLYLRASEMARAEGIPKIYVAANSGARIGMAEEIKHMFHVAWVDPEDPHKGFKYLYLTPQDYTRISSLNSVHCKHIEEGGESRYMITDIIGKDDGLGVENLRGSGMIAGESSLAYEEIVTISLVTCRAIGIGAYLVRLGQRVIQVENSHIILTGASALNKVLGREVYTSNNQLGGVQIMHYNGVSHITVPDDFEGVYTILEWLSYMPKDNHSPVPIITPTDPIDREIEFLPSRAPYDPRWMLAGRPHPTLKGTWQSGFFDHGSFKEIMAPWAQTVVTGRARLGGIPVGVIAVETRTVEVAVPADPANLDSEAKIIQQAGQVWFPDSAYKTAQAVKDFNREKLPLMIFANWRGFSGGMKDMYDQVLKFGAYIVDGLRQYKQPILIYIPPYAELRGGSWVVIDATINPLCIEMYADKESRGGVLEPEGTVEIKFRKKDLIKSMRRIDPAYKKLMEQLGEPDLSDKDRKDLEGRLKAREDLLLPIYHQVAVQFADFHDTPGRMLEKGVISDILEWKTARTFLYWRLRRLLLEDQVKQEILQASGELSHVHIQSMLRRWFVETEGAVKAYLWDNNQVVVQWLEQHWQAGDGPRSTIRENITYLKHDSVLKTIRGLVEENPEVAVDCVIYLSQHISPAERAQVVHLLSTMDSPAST
How it was run: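 Purified hACC2 from tetracycline-induced CHO cells (avidin-column eluate) was run in 50 mM HEPES pH7.5, 5 mM MgCl2, 5 mM citrate, 2 mM DTT, 0.5 mg/mL BSA with 30 μM acetyl-CoA, 50 μM ATP and 8 mM KHCO3. Reaction lasted 1 hour at room temperature; ADP was detected by Transcreener FP after another 1 hour.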

rat liver ACC = rat liver ACC (Rattus norvegicus, UniProt P11497); assay type: biochemical; conditions: rat liver ACC radio enzymatic assay
Procedure: [1] Preparation of rat liver ACC. Rat liver ACC was obtained from rat liver based upon standard procedures such as those described by Thampy and Wakil (J. Biol. Chem. 260: 6318-6323; 1985) using the following method.
Male CD rats weighing 150-200 g were fasted for 18-24 hours and then fed a high sucrose diet (AIN-76A rodent diet; Cat # D10001, Research Diets Inc., New Brunswick, N.J.), for 3 days at which time they were sacrificed by CO2 asphyxiation. The livers were removed, rinsed in ice-cold phosphate-buffered saline (PBS), and homogenized in 5 volumes of homogenization buffer (50 mM potassium phosphate, pH 7.5, 10 mM EDTA, 10 mM 2-mercaptoethanol, 2 mM benzamidine, 0.2 mM phenylmethylsulfonylfluoride (PMSF), 5 mg/L each leupeptin, aprotinin, and antitrypsin) in a Waring® blender for 1 minute at 4° C. All subsequent operations were carried out at 4° C. The homogenate has made 3% with respect to polyethylene glycol (PEG) by the addition of 50% PEG solution and centrifuged at 20,000×g for 15 minutes. The resulting supernatant was adjusted to 5% PEG with the addition of 50% PEG solution and stirred for 5 minutes. The pellet (contains ACC activity) was collected by centrifugation at 20,000×g for 20 minutes, rinsed with ice-cold doubly distilled water to remove excess PEG and re-suspended in one-fourth the original homogenate volume with homogenization buffer. Ammonium sulfate (200 g/liter) was slowly added with stirring. After 45 minutes the enzyme is collected by centrifugation for 30 minutes at 20,000×g, re-suspended in 10 mL of 50 mM HEPES, pH7.5, 0.1 mM DTT, 1.0 mM EDTA, and 10% glycerol and desalted on a Sephadex™ G-25 column (2.5 cm×50 cm) (Pharmacia, Piscataway N.J. now GE Healthcare) equilibrated with the same buffer. The desalted enzyme preparation was stored in aliquots at −70° C. Immediately prior to use, frozen rat liver ACC aliquots were thawed, diluted to 500 μg/mL in buffer containing 50 mM HEPES, pH7.5, 10 mM MgCl2, 10 mM tripotassium citrate, 2.0 mM dithiothreitol (DTT), and 0.75 mg/mL fatty acid-free bovine serum albumin (BSA) and pre-incubated at 37° C. for 30 minutes.
[2] Measurement of rat liver ACC inhibition. For measurement of ACC activity and assessment of ACC inhibition, test compounds were dissolved in dimethylsulfoxide (DMSO) and 1 μL aliquots were added to a clear bottom, 96-well plates (Perkin-Elmer PN#1450-514). Control wells contain 1 μL of DMSO alone or 1 μL of high inhibition compound. The enzyme obtained from rat liver as described above was activated in Enzyme buffer at 37° C. for 30 minutes prior to addition to compound plate. All wells receive 75 μL of activated enzyme (1.33×) in a buffer containing 50 mM HEPES, pH7.5, 7.5 mM MgCl2 7.5 mM tripotassium citrate, 2 mM DTT, 50 mg/mL BSA. The activated enzyme was pre-incubated with the cmpd for 10 minute prior to initiating the reaction through the addition of 25 μL of substrate solution containing 50 mM HEPES, pH7.5, 7.5 mM MgCl2 7.5 mM tripotassium citrate, 2 mM DTT, 50 mg/mL BSA, 120 μM acetyl-CoA, 8.0 mM ATP, 38.4 mM KHCO3, and 1.6 mM NaH[^14C]O3 ([…]). The final substrate concentrations in the reaction were 30 μM Acetyl-CoA, 9.6 mM KHCO3, 0.4 mM NaH[^14C]O3, and 2 mM ATP. The reaction was terminated after 10 mins by the addition of 25 μL 3N HCl and the plates were dried at 50° C. for a minimum 20 hrs. 30 μL of water was added to the dried plate and mixed for 5 minutes. 95 μL of Optiphase Supermix liquid scintillation fluid (Perkin Elmer, Waltham, Mass.) was added and the plates are mixed for 20 minutes. Incorporation of ^14C into MCoA was measured using a Wallac Trilux 1450 Microbeta LSC luminescence counter.

[1] = test system: malonyl-CoA levels in muscle tissue; test: Acute in vivo assessment of ACC inhibition: malonyl-CoA levels in muscle tissue (quadriceps); parameters: species or system male Sprague-Dawley Rats; conditions: relative to chow-fed vehicle control group, % decrease +/- SEM
Procedure: (§1) The ACC inhibitory activity of the compound of the present invention can be confirmed in vivo by evaluation of their ability to reduce malonyl-CoA levels in liver and muscle tissue from treated animals.
(§2) Measurement of malonyl-CoA production inhibition in experimental animals. In this method, male Sprague-Dawley Rats, maintained on standard chow and water ad libitum (225-275 g), were randomized prior to the study. Animals were either fed, or fasted for 18 hours prior to the beginning of the experiment. Two hours into the light cycle the animals were orally dosed with a volume of 5 mL/kg, (0.5% methyl cellulose; vehicle) or with the appropriate compound (prepared in vehicle). Fed vehicle controls were included to determine baseline tissue malonyl-CoA levels while fasted animals were included to determine the effect fasting had on malonyl-CoA levels. One hour after compound administration the animals were asphyxiated with CO2 and the tissues were removed. Specifically, blood was collected by cardiac puncture and placed into BD Microtainer tubes containing EDTA (BD Biosciences, NJ), mixed, and placed on ice. Plasma was used to determine drug exposure. Liver and quadriceps were removed, immediately freeze-clamped, wrapped in foil and stored in liquid nitrogen.
(§3) Tissues were pulverized under liquid N2 to ensure uniformity in sampling. Malonyl-CoA was extracted from the tissue (150-200 mg) with 5 volumes 10% […] in Lysing Matrix A (MP Biomedicals, PN 6910) in a FastPrep FP120 (Thermo Scientific, speed=5.5; for 45 seconds). The supernatant containing malonyl-CoA was removed from the cell debris after centrifugation at 15000×g for 30 minutes (Eppendorf Centrifuge 5402). Samples were stably frozen at −80 C until analysis is completed.
(§4) Analysis of malonyl CoA levels in liver and muscle tissue can be evaluated using the following methodology.
(§5) The method utilizes the following materials: Malonyl-CoA tetralithium salt and malonyl-^13C3-CoA trilithium salt which were purchased from Isotec (Miamisburg, Ohio, USA), sodium perchlorate (Sigma, cat no. 410241), trichloroacetic acid (ACROS, cat no. 42145), phosphoric acid (J. T. Baker, cat no. 0260-01), ammonium formate (Fluke, cat no. 17843), methanol (HPLC grade, J. T. Baker, cat no. 9093-33), and water (HPLC grade, J. T. Baker, 4218-03) were used to make the necessary mobile phases. Strata-X on-line solid phase extraction columns, 25 μm, 20 mm×2.0 mm I.D (cat no. 00M-S033-B0-CB) were obtained from Phenomenex (Torrance, Calif., USA). SunFire C18 reversed-phase columns, 3.5 μm, 100 mm×3.0 mm I.D. (cat no. 186002543) were purchased from Waters Corporation (Milford, Mass., USA).
(§6) This method may be performed utilizing the following equipment. Two-dimensional chromatography using an Agilent 1100 binary pump, an Agilent 1100 quaternary pump and two Valco Cheminert 6-port two position valves. Samples were introduced via a LEAP HTC PAL auto sampler with Peltier cooled stack maintained at 10° C. and a 20 μL sampling loop. The needle wash solutions for the autosampler are 10% trichloroacetic acid in water (w/v) for Wash 1 and 90:10 methanol:water for Wash 2. The analytical column (Sunfire) was maintained at 35° C. using a MicroTech Scientific Micro-LC Column Oven. The eluant was analyzed on an ABI Sciex API3000 triple quadrupole mass spectrometer with Turbo Ion Spray.
(§7) Two-dimensional chromatography was performed in parallel using distinct gradient elution conditions for on-line solid phase extraction and reversed-phase chromatography. The general design of the method was such that the first dimension was utilized for sample clean-up and capture of the analyte of interest followed by a brief coupling of both dimensions for elution from the first dimension onto the second dimension. The dimensions were subsequently uncoupled allowing for gradient elution of the analyte from the second dimension for quantification while simultaneously preparing the first dimension for the next sample in the sequence. […]

[2] = test system: malonyl-CoA levels in liver; test: Acute in vivo assessment of ACC inhibition: malonyl-CoA levels in liver tissue; parameters: species or system male Sprague-Dawley Rats; conditions: relative to chow-fed vehicle control group, % decrease +/- SEM
Procedure: as §1, §2, §3, §4, §5, §6, §7

Cc1n[nH]c2c(C)cc(C(=O)N3CCC4(CC3)CC(=O)c3nn(C5CCOC5)c(C)c3O4)cc12 (stereo not drawn) [1.015]
pIC50 (recombinant human ACC2): 7.70 | pIC50 (rat liver ACC): 7.68

Cc1c(C(=O)N2CCC3(CC2)CC(=O)c2nn(C(C)(C)C)cc2O3)ccc2[nH]ncc12 [1.147]
pIC50 (recombinant human ACC2): 7.31 | pIC50 (rat liver ACC): 7.82

CCOc1cc(C(=O)N2CCC3(CC2)CC(=O)c2nn(C(C)C)cc2O3)cc2cn[nH]c12 [1.123]
pIC50 (recombinant human ACC2): 7.85 | pIC50 (rat liver ACC): 7.80

Cc1cc(C(=O)N2CCC3(CC2)CC(=O)c2nn(C(C)C)cc2O3)cc2cn[nH]c12 [1.022]
pIC50 (recombinant human ACC2): 7.55 | pIC50 (rat liver ACC): 7.66

CC(C)(C)n1cc2c(n1)C(=O)CC1(CCN(C(=O)c3ccc4[nH]ncc4c3)CC1)O2 [1.074]
Percent decrease in Muscle Malonyl-CoA (quadriceps) ([1]; dose 1 mg/kg): 2.34 (5.44) % | Percent decrease in Muscle Malonyl-CoA (quadriceps) ([1]; dose 3 mg/kg): 24.42 (6.83) % | Percent decrease in Muscle Malonyl-CoA (quadriceps) ([1]; dose 10 mg/kg): 49.00 (2.40) % | Percent decrease in Muscle Malonyl-CoA (quadriceps) ([1]; dose 30 mg/kg): 57.06 (2.04) % | pIC50 (rat liver ACC): 7.77 | Percent decrease in Liver Malonyl-CoA ([2]; dose 1 mg/kg): 34.97 (2.59) % | Percent decrease in Liver Malonyl-CoA ([2]; dose 3 mg/kg): 53.97 (1.19) % | Percent decrease in Liver Malonyl-CoA ([2]; dose 10 mg/kg): 70.74 (3.49) % | Percent decrease in Liver Malonyl-CoA ([2]; dose 30 mg/kg): 63.60 (3.57) %

CCCn1cc2c(n1)C(=O)CC1(CCN(C(=O)c3cc(C)c4[nH]ncc4c3)CC1)O2 [1.027]
pIC50 (recombinant human ACC2): 7.37 | pIC50 (rat liver ACC): 7.32

Cc1nc2c(C)cc(C(=O)N3CCC4(CC3)CC(=O)c3nn(C(C)(C)C)cc3O4)cc2[nH]1 [3.003]
pIC50 (recombinant human ACC2): 8.40 | pIC50 (rat liver ACC): 8.00
